“And” between values parts separate entries of the source, which are not always exact repeats. Equal values may be shown once.
Tests used:
[1] = test system: uterus wet weight, immature Sprague-Dawley rats; experiment: Rat Uterotrophic/Antiuterotrophic Bioassay; type: in vivo; details: day 4; for uterine wet weight, 10 μG: 10 uG compound daily ip; for uterine wet weight, 10 μG / uterine wet weight, 100 μG + 1 μG 17β-estradiol / uterine wet weight, 100 μG: immature female rats; for uterine wet weight, 100 μG + 1 μG 17β-estradiol: 100 uG compound + 1 uG 17β-estradiol daily ip; for uterine wet weight, 100 μG: 100 uG compound daily ip
Description: Rat Uterotrophic/Antiuterotrophic Bioassay The estrogenic and antiestrogenic properties of the compounds were determined in an immature rat uterotrophic assay (4 day) that (as described previously by L. J. Black and R. L. Goode, Life Sciences, 26, 1453 (1980)). Immature Sprague-Dawley rats (female, 18 days old) were tested in groups of six. […] A small section of one horn was submitted for histology and the remainder used to isolate total RNA in order to evaluate complement component 3 gene expression.

estrogen receptor = target: T1, estrogen receptor (Homo sapiens, UniProt P03372); experiment: In Vitro Estrogen Receptor Binding Assay ([3H]-17β-estradiol competition); details: RBA: 17β-estradiol=100; cytosol of CHO cells overexpressing the estrogen receptor
T1 construct: expressed in transfected cells; host or cells: CHO cells, ribosome-free cytosol
T1 sequence (P03372 1-595): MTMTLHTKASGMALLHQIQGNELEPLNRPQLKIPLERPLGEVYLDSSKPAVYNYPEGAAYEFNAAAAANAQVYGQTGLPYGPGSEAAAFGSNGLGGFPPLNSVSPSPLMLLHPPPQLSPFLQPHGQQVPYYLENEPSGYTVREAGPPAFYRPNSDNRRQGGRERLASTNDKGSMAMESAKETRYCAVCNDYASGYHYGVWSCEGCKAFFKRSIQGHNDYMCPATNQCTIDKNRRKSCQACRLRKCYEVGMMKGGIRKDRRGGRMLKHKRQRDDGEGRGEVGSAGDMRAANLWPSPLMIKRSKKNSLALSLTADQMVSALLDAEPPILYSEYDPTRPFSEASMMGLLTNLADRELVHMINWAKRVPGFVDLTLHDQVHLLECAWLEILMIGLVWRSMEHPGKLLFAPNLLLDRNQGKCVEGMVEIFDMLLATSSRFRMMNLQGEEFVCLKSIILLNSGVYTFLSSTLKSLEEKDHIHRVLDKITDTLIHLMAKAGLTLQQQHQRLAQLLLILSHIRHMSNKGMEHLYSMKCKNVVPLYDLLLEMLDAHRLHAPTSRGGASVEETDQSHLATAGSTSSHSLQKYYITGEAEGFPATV

Ishikawa cells = experiment: Ishikawa Cell Alkaline Phosphatase Assay; type: cell-based, human; details: compound alone; percent of response related to 1 nM 17β-estradiol; 48 h
Description: Ishikawa Cell Alkaline Phosphatase Assay Cell Maintenance and Treatment: […] Cells were treated for 48 h prior to assay. […] Sample population for at each dose was n=8. Alkaline Phosphatase Assay: […] Plates are placed at -80° C. for a minimum of 15 minutes. Plates are thawed at 37° C. followed by the addition of 150 μL of 0.1 M Tris-HCl, pH 9.8, containing 4 mM para-nitrophenylphosphate (pNPP) to each well (final concentration, 3 mM pNPP). Absorbance and slope calculations were made using the […] Application program (Bio-Tek Instruments, Inc., Winooski, VT.). […] Various compounds were assayed for estrogenic activity by the alkaline phosphatase method and corresponding ED50 values (95% C.I.) were calculated. The four listed in the following were used as as reference standards: A description of these methods is described by Holinka, […]., Kuramoto, H. and Gurpide, E. (1986) Effects of steroid hormones and antisteroids on alkaline phosphatase activity in human endometrial cancer cells (Ishikawa Line). Cancer Research, 46:2771-2774, and by […]. and […] simple and sensitive microtiter plate estrogen bioassay based on stimulation alkaline phosphatase in Ishikawa cells; […] Endocrinology, 6:2757-2762.

Structure (SMILES)	uterine wet weight, 10 μG [1]	uterine wet weight, 100 μG + 1 μG 17β-estradiol [1]	uterine wet weight, 100 μG [1]	Estrogen Receptor Affinity (RBA) (estrogen receptor)	% Activation (Ishikawa cells)	melting point	uterine wet weight, 1 μG 17β-estradiol ([1]; 1 uG 17β-estradiol daily ip, positive control of each experiment)
Cc1c(-c2ccc(O)cc2)n(Cc2ccc(C#CCN(C)C)cc2)c2ccc(O)cc12 [Example 4, 2-(4-Hydroxy-phenyl)-3-methyl-1-[4-(3-N,N-dimethyl-1-yl-prop-1-ynyl)-benzyl]-1H-indol-5-ol]	56.0 mg	77.6 mg	84.0 mg	53			
O=C(c1ccc(OCCN2CCCCC2)cc1)c1c(-c2ccc(O)cc2)sc2cc(O)ccc12 [Raloxifene]	47.5 mg		43.2 mg		5%		
CC/C(=C(\c1ccccc1)c1ccc(OCCN(C)C)cc1)c1ccccc1 [Tamoxifen]	69.6 mg		71.4 mg		0%		
Cc1c(-c2ccc(O)cc2)n(Cc2ccc(C#CCN3CCCCC3)cc2)c2ccc(O)cc12 [Example 5, 2-(4-Hydroxy-phenyl)-3-methyl-1-[4-(3-piperidin-1-yl-prop-1-vinyl)-benzyl]-1H-indol-5-ol]	55.6 mg	66.8 mg	71.3 mg	23			
Cc1c(-c2ccc(O)cc2)n(Cc2ccc(C#CCN3CCCC3)cc2)c2ccc(O)cc12						174 to 176 °C	
C[C@]12CC[C@@H]3c4ccc(O)cc4CC[C@H]3[C@@H]1CC[C@@H]2O [17β-estradiol]							1 μG 17β-estradiol = 98.2 mg and 1 μG 17β-estradiol = 90.2 mg and 1 μg 17β-estradiol = 82.8 mg

Reference: patent publication US6583170B1, “2-Phenyl-1-[4-(amino-1-yl-alk-1-ynyl)-benzyl]-1H-indol-5-ol and estrogen formulations” (Wyeth, priority 1998, dated 2003)
